{"source": "paper PMC9413491", "about": "“A Novel and Cross-Species Active Mammalian INDY (NaCT) Inhibitor Ameliorates Hepatic Steatosis in Mice with Diet-Induced Obesity” (Metabolites, 2022)", "key": {"DIO mice": {"tested_on": "DIO mice", "assay": "28-day treatment of diet-induced obesity (DIO) mice", "format": "in vivo, mouse", "method": "We performed in vivo testing in DIO mice (for 7- and 28-day treatment), an established model designed to study high-fat-diet-induced hepatic steatosis and associated cardiometabolic traits. We established DIO in four-week-old C57BL/6N male mice that were fed a high-fat diet (HFD, 60 kcal% fat, D12492; Research Diets, Inc.; New Brunswick, NJ, USA) until 11 weeks of age.\nMice were housed at a temperature of 22–24 °C, with a day/night cycle of 12/12 h (07:00-19:00–07:00) and had access to the appropriate diet and tap water ad libitum. Animals allocated to the pair-feeding group were fed the same amount of food as the corresponding treatment group had consumed the day before. Food was only withdrawn for overnight fasting on the penultimate study day before the section on the final day. We randomised groups of n = 12 for treatment and n = 8 for pair-feeding cage-wise according to random fed blood glucose levels and body weight before the study treatment was started. For all animals, the high-fat diet was started at the same age.\nWe treated DIO mice with the inhibitor or corresponding vehicle (5% DMSO/10% Cremophor® EL/85% water) twice a day at the same time by oral gavage according to their grouping (5, 15, and 50 mg/kg dose groups, and vehicle control groups). During the study, we measured body weight and blood glucose. We measured glucose concentrations in tail tip blood samples with the “Accu-Chek® Performa” glucometer (Roche, Basel, Switzerland, range <33.3 mmol/L). We determined random fed blood glucose and fasting blood glucose after overnight fasting.\nAn intraperitoneal glucose tolerance test was performed after an overnight fasting period. Mice were injected with 1g/kg glucose and blood glucose was measured over a period of 180 min.\nAt the end of study day 28, we obtained blood and liver samples. In anesthetised animals, we collected retro-orbital blood samples in non-coated tubes (Sarstedt, Inc., Nümbrecht, Germany). Then, we sacrificed animals by cervical dislocation. We dissected and weighed the livers and immediately froze liver samples in liquid nitrogen for further analysis.\nFor serum sample generation, we centrifuged blood at 4000× g for 10 min and dispensed serum samples into a 110 µL plus an additional aliquot. Samples were stored at −80 °C. For Piccolo® system (Abaxis, Inc., Union City, CA, USA) analysis (lipid panel including triglycerides and cholesterol), we used a 110 µL serum aliquot.\nThe frozen tissue from liver samples were used to determine the triglyceride content via triglyceride assay according to the manufacturer’s protocol (Sigma-Aldrich, Cat.No.TR0100) using glycerol as a standard (Sigma-Aldrich, Glycerol G7793, St. Louis, MO, USA).\nWe determined body composition in mice using the non-invasive Bruker Minispec Instrument MQ 10 NMR Analyser (Bruker, Billerica, MA, USA). We placed mice in a clear, plastic cylinder and kept them immobile by inserting a tight-fitting plunger into the cylinder. For scanning, the tube was placed in the sample chamber for approximately one minute. Body composition was calculated and related to whole body weight.\nWe isolated total RNA from individual liver samples from all animals in 1.5 mL Trizol reagent (Life Technologies, Carlsbad, CA, USA) at 4 °C according to the manufacturer’s instructions. Then, we purified total RNA utilising the RNeasy Mini Kit (Qiagen, Hilden, Germany) with DNase-treatment to completely remove genomic DNA according to the instructions of the manufacturer. Subsequently, RNA was reverse transcribed using Superscript II RnaseH Reverse Transcriptase (Life Technologies) and subjected to Taqman analysis using the Taqman Fast Advanced Master Mix (Applied Biosystems, Weiterstadt, Germany). The Mix contains AmpliTaq® Fast DNA Polymerase, AmpErase UNG, dNTPs with dUTP, passive reference Rox and optimised buffer components. Quantitative PCR was performed in the Quantstudio 7 Flex System (Applied Biosystems, Weiterstadt, Germany). […]"}, "[1]": {"assay": "Blood-brain barrier penetration: brain versus liver concentrations", "format": "in vivo", "conditions": "brain vs liver"}, "[2]": {"conditions": "15 mg/kg oral twice daily, 28 days"}, "[3]": {"conditions": "15 mg/kg oral twice daily, 28 days, p < 0.001"}, "[4]": {"conditions": "15 mg/kg oral twice daily, 28 days, p < 0.01"}, "[5]": {"conditions": "15 mg/kg oral twice daily, 28 days, p < 0.05"}}, "data": [{"compound": "O=C(Nc1cc(Cl)cc(C(F)(F)F)c1)OCCC(F)(F)F", "note": "[ETG-5773]", "values": [{"measurement": "Glucose excursion AUC (IPGTT) vs pair-fed control", "setting": "DIO mice; 15 mg/kg oral twice daily", "value": "not significant"}, {"measurement": "Glucose tolerance (IPGTT) vs vehicle control and pair-fed group", "setting": "DIO mice; 15 mg/kg oral twice daily, 1 g/kg glucose i.p., all p < 0.05", "value": "significantly improved glucose tolerance"}, {"measurement": "Plasma cholesterol concentrations", "setting": "DIO mice; [2]", "value": "no effect"}, {"measurement": "Plasma triglyceride concentrations vs vehicle", "setting": "DIO mice; [2]", "value": "though not compared to the vehicle"}, {"measurement": "Reduction in fasting insulin vs pair-fed", "setting": "DIO mice; 15 mg/kg oral twice daily, 28 days, non-significant p = 0.2", "value": 70, "unit": "%"}, {"measurement": "Reduction in body weight vs vehicle group", "setting": "DIO mice; 15 mg/kg oral twice daily, 28 days, p < 0.0001", "value": 19, "unit": "%"}, {"measurement": "Reduction in fasting blood glucose vs pair-fed", "setting": "DIO mice; [3]", "value": 25, "unit": "%"}, {"measurement": "Reduction in hepatic triglyceride content vs pair-fed", "setting": "DIO mice; [3]", "value": 25, "unit": "%"}, {"measurement": "Plasma triglyceride concentrations vs pair-fed", "setting": "DIO mice; [4]", "value": "slightly increased"}, {"measurement": "Reduction in body weight vs pair-fed group", "setting": "DIO mice; [4]", "value": 14, "unit": "%"}, {"measurement": "Decrease in fasting blood glucose vs vehicle", "setting": "DIO mice; [5]", "value": 17, "unit": "%"}, {"measurement": "Reduction in fasting insulin vs vehicle", "setting": "DIO mice; [5]", "value": 75, "unit": "%"}, {"measurement": "Glucose excursion AUC (IPGTT) vs vehicle control", "setting": "DIO mice; 15 mg/kg oral twice daily, p < 0.05", "value": "significantly reduced"}, {"measurement": "Hepatic Fasn mRNA vs pair-fed group", "setting": "DIO mice; 15 mg/kg twice daily, 28 days, p 0.09", "value": "trend for reduction"}, {"measurement": "Hepatic Srebf1 mRNA vs vehicle control and pair-fed", "setting": "DIO mice; 15 mg/kg twice daily, 28 days, p < 0.0001", "value": "significantly downregulated"}, {"measurement": "Hepatic Scd1 mRNA vs vehicle control and pair-fed", "setting": "DIO mice; 15 mg/kg twice daily, 28 days, p < 0.0001 vehicle, p < 0.001 pair-fed", "value": "significantly downregulated"}, {"measurement": "Hepatic Acly mRNA vs vehicle control and pair-fed", "setting": "DIO mice; 15 mg/kg twice daily, 28 days, p < 0.001 vehicle, p < 0.01 pair-fed", "value": "significantly downregulated"}, {"measurement": "Hepatic Fasn mRNA vs vehicle control", "setting": "DIO mice; 15 mg/kg twice daily, 28 days, p < 0.01", "value": "significantly downregulated"}, {"measurement": "Hepatic Acc1 mRNA vs vehicle control", "setting": "DIO mice; 15 mg/kg twice daily, 28 days, p < 0.05", "value": "significantly downregulated"}, {"measurement": "Hepatic Acc1 mRNA vs pair-fed group", "setting": "DIO mice; 15 mg/kg twice daily, 28 days, p < 0.1", "value": "trend for reduction"}, {"measurement": "Body fat as percentage of body weight vs vehicle and pair-fed", "setting": "DIO mice; 15 mg/kg twice daily, day 22", "value": "significant decrease"}, {"measurement": "Lean mass as percentage of body weight vs vehicle and pair-fed", "setting": "DIO mice; 15 mg/kg twice daily, day 22", "value": "significant increase"}, {"measurement": "Fat mass (NMR) vs vehicle control and pair-fed group", "setting": "DIO mice; 15 mg/kg twice daily, day 22, p < 0.0001 vs vehicle, p < 0.01 vs pair-fed", "value": "markedly reduced"}, {"measurement": "Lean mass (NMR) vs vehicle control", "setting": "DIO mice; 15 mg/kg twice daily, day 22, p < 0.01, not significant vs pair-fed", "value": "significantly lower"}, {"measurement": "Concentration in brain relative to liver (lower)", "setting": "[1]", "value": 30, "unit": "fold"}]}]}
